The structures appear in SMILES notation.

The record followed here is US12084485B2 (Intarcia Therapeutics, Inc., priority 2020, dated 2024).

A short description of series [1]: Acute food intake inhibition in Long Evans rats after bolus SC dosing (BioDAQ). The class given is in vivo, rat. The note with it: 30 mcg SC bolus.
The nature of series [2]: Stability in DMSO or DI water at 37° C. (purity by LC/MS and HPLC). The class given is physicochemical.
Series [3] can be described thus: Solubility in saline or DI water at room temperature (visual inspection). In kind it is physicochemical.

Regarding `CC[C@H](C)[C@H](NC(=O)[C@H](Cc1ccccc1)NC(=O)[C@H](CCCCN)NC(=O)[C@H](CCCNC(=N)N)NC(=O)[C@H](C)NC(=O)[C@H](C)NC(=O)[C@H](CCC(=O)O)NC(=O)[C@H](CCCCNC(=O)CC[C@H](NC(=O)CC[C@H](NC(=O)COCCOCCNC(=O)CCCCCCCCCCCCCCCCCCC(=O)O)C(=O)O)C(=O)O)NC(=O)[C@H](CCC(=O)O)NC(=O)[C@H](Cc1ccc(O)cc1)NC(=O)[C@H](CCC(N)=O)NC(=O)[C@H](CCCCN)NC(=O)[C@H](CO)NC(=O)[C@H](CC(C)C)NC(=O)[C@H](CC(=O)O)NC(=O)[C@H](CO)NC(=O)[C@@H](NC(=O)[C@H](Cc1ccccc1)NC(=O)[C@@H](NC(=O)CNC(=O)[C@H](CCC(=O)O)NC(=O)C(C)(C)NC(=O)[C@@H](N)Cc1c[nH]cn1)[C@@H](C)O)[C@@H](C)O)C(=O)N[C@@H](CO)C(=O)N[C@@H](Cc1c[nH]c2ccccc12)C(=O)N[C@@H](CC(C)C)C(=O)N[C@@H](CCCCN)C(=O)N[C@@H](CC(N)=O)C(=O)NCC(=O)NCC(=O)N1CCC[C@H]1C(=O)N[C@@H](Cc1c[nH]cn1)C(=O)N[C@@H](CO)C(=O)NCC(=O)N[C@@H](C)C(=O)N1CCC[C@H]1C(=O)N1CCC[C@H]1C(=O)N1CCC[C@H]1C(=O)N[C@@H](CO)C(N)=O` [Compound A62], in series [1] (0-24 hr), the “% Food Intake Inhibition from Vehicle, 0-24 hr” value is recorded as −37.1%. In addition, the “% Food Intake Inhibition from Vehicle, 25-48 hr” value in series [1] (25-48 hr) is on record as −48.8%. Further, the “% Food Intake Inhibition from Vehicle, 49-72 hr” value in series [1] (49-72 hr) is −47.4%. Also, the “% Food Intake Inhibition from Vehicle, 73-96 hr” value in series [1] (73-96 hr) was determined as 19.5%.

With `CC[C@H](C)[C@H](NC(=O)[C@H](Cc1ccccc1)NC(=O)[C@H](CCC(=O)O)NC(=O)[C@H](CCCNC(=N)N)NC(=O)[C@H](C)NC(=O)[C@H](C)NC(=O)[C@H](CCC(=O)O)NC(=O)[C@H](CCNC(=O)CC[C@H](NC(=O)CC[C@H](NC(=O)COCCOCCNC(=O)CC[C@H](NC(=O)CC[C@H](NC(=O)CCCCCCCCCCCCCCCCCCC(=O)O)C(=O)O)C(=O)O)C(=O)O)C(=O)O)NC(=O)[C@H](CCC(=O)O)NC(=O)[C@H](Cc1ccc(O)cc1)NC(=O)[C@H](CCC(N)=O)NC(=O)[C@H](CCCCN)NC(=O)[C@H](CO)NC(=O)[C@H](CC(C)C)NC(=O)[C@H](CC(=O)O)NC(=O)[C@H](CO)NC(=O)[C@@H](NC(=O)[C@H](Cc1ccccc1)NC(=O)[C@@H](NC(=O)CNC(=O)[C@H](CCC(=O)O)NC(=O)C(C)(C)NC(=O)[C@@H](N)Cc1c[nH]cn1)[C@@H](C)O)[C@@H](C)O)C(=O)N[C@@H](CCC(=O)O)C(=O)N[C@@H](Cc1c[nH]c2ccccc12)C(=O)N[C@@H](CC(C)C)C(=O)N[C@@H](CCCCN)C(=O)N[C@@H](CC(N)=O)C(=O)NCC(=O)NCC(=O)N1CCC[C@H]1C(=O)N[C@@H](CO)C(=O)N[C@@H](CO)C(=O)NCC(=O)N[C@@H](C)C(=O)N1CCC[C@H]1C(=O)N1CCC[C@H]1C(=O)N1CCC[C@H]1C(=O)N[C@@H](CO)C(N)=O` [Compound A72], in series [2], the “Stability @ 37° C. (% purity) Day 14” value came to 98.7% and the “Stability @ RT (% purity) Day 28” value is recorded as 95.1%.

For the molecule `CC[C@H](C)[C@H](NC(=O)[C@H](Cc1ccccc1)NC(=O)[C@H](CCC(=O)O)NC(=O)[C@H](CCCNC(=N)N)NC(=O)[C@H](C)NC(=O)[C@H](C)NC(=O)[C@H](CCC(=O)O)NC(=O)[C@H](CCCCNC(=O)CC[C@H](NC(=O)CC[C@H](NC(=O)COCCOCCNC(=O)CC[C@H](NC(=O)CC[C@H](NC(=O)CCCCCCCCCCCCCCCCCCC(=O)O)C(=O)O)C(=O)O)C(=O)O)C(=O)O)NC(=O)[C@H](CCC(=O)O)NC(=O)[C@H](Cc1ccc(O)cc1)NC(=O)[C@H](CCC(N)=O)NC(=O)[C@H](CCC(=O)O)NC(=O)[C@H](CO)NC(=O)[C@@H](NC(=O)[C@H](CC(=O)O)NC(=O)[C@H](CO)NC(=O)[C@@H](NC(=O)[C@H](Cc1ccccc1)NC(=O)[C@@H](NC(=O)CNC(=O)[C@H](CCC(=O)O)NC(=O)C(C)(C)NC(=O)[C@@H](N)Cc1c[nH]cn1)[C@@H](C)O)[C@@H](C)O)[C@@H](C)CC)C(=O)N[C@@H](CCC(=O)O)C(=O)N[C@@H](Cc1c[nH]c2ccccc12)C(=O)N[C@@H](CC(C)C)C(=O)N[C@@H](CCCCN)C(=O)N[C@@H](CC(N)=O)C(=O)NCC(=O)NCC(=O)N1CCC[C@H]1C(=O)N[C@@H](CO)C(=O)N[C@@H](CO)C(=O)NCC(=O)N[C@@H](C)C(=O)N1CCC[C@H]1C(=O)N1CCC[C@H]1C(=O)N1CCC[C@H]1C(=O)N[C@@H](CO)C(N)=O` [Compound A80], the solubility in series [3] (Solubility (mg/mL) in DI water) was greater than 78 mg/mL; in series [3] (Solubility (mg/mL) in saline) it was greater than 75 mg/mL.

Turning to `CC[C@H](C)[C@H](NC(=O)[C@H](Cc1ccccc1)NC(=O)[C@H](CCC(N)=O)NC(=O)[C@H](CCCNC(=N)N)NC(=O)[C@@H](NC(=O)[C@H](C)NC(=O)[C@H](CCC(=O)O)NC(=O)[C@H](CCCCNC(=O)CC[C@H](NC(=O)CC[C@H](NC(=O)COCCOCCNC(=O)CCCCCCCCCCCCCCCCCCC(=O)O)C(=O)O)C(=O)O)NC(=O)[C@H](CCC(=O)O)NC(=O)[C@H](Cc1ccc(O)cc1)NC(=O)[C@H](CCC(N)=O)NC(=O)[C@H](CCCCN)NC(=O)[C@H](CO)NC(=O)[C@H](CC(C)C)NC(=O)[C@H](CC(=O)O)NC(=O)[C@H](CO)NC(=O)[C@@H](NC(=O)[C@H](Cc1ccccc1)NC(=O)[C@@H](NC(=O)CNC(=O)[C@H](CCC(=O)O)NC(=O)C(C)(C)NC(=O)[C@@H](N)Cc1c[nH]cn1)[C@@H](C)O)[C@@H](C)O)C(C)C)C(=O)N[C@@H](CO)C(=O)N[C@@H](Cc1c[nH]c2ccccc12)C(=O)N[C@@H](CC(C)C)C(=O)N[C@@H](CCCCN)C(=O)N[C@@H](CC(N)=O)C(=O)NCC(=O)NCC(=O)N1CCC[C@H]1C(=O)N[C@@H](CO)C(=O)N[C@@H](CO)C(=O)NCC(=O)N[C@@H](C)C(=O)N1CCC[C@H]1C(=O)N1CCC[C@H]1C(=O)N1CCC[C@H]1C(=O)N[C@@H](CO)C(N)=O` [Compound A96], the solubility in series [3] (Solubility (mg/mL) in DI water) is greater than 128 mg/mL; in series [3] (Solubility (mg/mL) in saline), greater than 133 mg/mL.

Regarding `CC[C@H](C)[C@H](NC(=O)[C@H](Cc1ccccc1)NC(=O)[C@H](CCC(=O)O)NC(=O)[C@H](CCCNC(=N)N)NC(=O)[C@@H](NC(=O)[C@H](C)NC(=O)[C@H](CCC(=O)O)NC(=O)[C@H](CCCCNC(=O)CC[C@H](NC(=O)CC[C@H](NC(=O)COCCOCCNC(=O)CCCCCCCCCCCCCCCCCCC(=O)O)C(=O)O)C(=O)O)NC(=O)[C@H](CCC(=O)O)NC(=O)[C@H](Cc1ccc(O)cc1)NC(=O)[C@H](CCC(N)=O)NC(=O)[C@H](CCCCN)NC(=O)[C@H](CO)NC(=O)[C@H](CC(C)C)NC(=O)[C@H](CC(=O)O)NC(=O)[C@H](CO)NC(=O)[C@@H](NC(=O)[C@H](Cc1ccccc1)NC(=O)[C@@H](NC(=O)CNC(=O)[C@H](CCC(=O)O)NC(=O)C(C)(C)NC(=O)[C@@H](N)Cc1c[nH]cn1)[C@@H](C)O)[C@@H](C)O)C(C)C)C(=O)N[C@@H](CCC(=O)O)C(=O)N[C@@H](Cc1c[nH]c2ccccc12)C(=O)N[C@@H](CC(C)C)C(=O)N[C@@H](CCCCN)C(=O)N[C@@H](CC(N)=O)C(=O)NCC(=O)NCC(=O)N1CCC[C@H]1C(=O)N[C@@H](Cc1c[nH]cn1)C(=O)N[C@@H](CO)C(=O)NCC(=O)N[C@@H](C)C(=O)N1CCC[C@H]1C(=O)N1CCC[C@H]1C(=O)N1CCC[C@H]1C(=O)N[C@@H](CO)C(N)=O` [Compound A152], the values for the solubility in series [3] (Solubility (mg/mL) in DI water) and in series [3] (Solubility (mg/mL) in saline) were greater than 109 mg/mL and greater than 101 mg/mL, respectively.

In the case of `CC[C@H](C)[C@H](NC(=O)[C@H](Cc1ccccc1)NC(=O)[C@H](CCC(=O)O)NC(=O)[C@H](CCCNC(=N)N)NC(=O)[C@H](C)NC(=O)[C@H](C)NC(=O)[C@H](CCC(=O)O)NC(=O)[C@H](CCCCNC(=O)CC[C@H](NC(=O)CC[C@H](NC(=O)COCCOCCNC(=O)CC[C@H](NC(=O)CC[C@H](NC(=O)CCCCCCCCCCCCCCCCCCC(=O)O)C(=O)O)C(=O)O)C(=O)O)C(=O)O)NC(=O)[C@H](CCC(=O)O)NC(=O)[C@H](Cc1ccc(O)cc1)NC(=O)[C@H](CCC(N)=O)NC(=O)[C@H](CCCCN)NC(=O)[C@H](CO)NC(=O)[C@H](CC(C)C)NC(=O)[C@H](CC(=O)O)NC(=O)[C@H](CO)NC(=O)[C@@H](NC(=O)[C@H](Cc1ccccc1)NC(=O)[C@@H](NC(=O)CNC(=O)[C@H](CCC(=O)O)NC(=O)C(C)(C)NC(=O)[C@@H](N)Cc1c[nH]cn1)[C@@H](C)O)[C@@H](C)O)C(=O)N[C@@H](CCC(=O)O)C(=O)N[C@@H](Cc1c[nH]c2ccccc12)C(=O)N[C@@H](CC(C)C)C(=O)N[C@@H](CCCCN)C(=O)N[C@@H](CC(N)=O)C(=O)NCC(=O)NCC(=O)N1CCC[C@H]1C(=O)N[C@@H](Cc1c[nH]cn1)C(=O)N[C@@H](CO)C(=O)NCC(=O)N[C@@H](C)C(=O)N1CCC[C@H]1C(=O)N1CCC[C@H]1C(=O)N1CCC[C@H]1C(=O)N[C@@H](CO)C(N)=O` [Compound A154], the solubility in series [3] (Solubility (mg/mL) in DI water) was greater than 70 mg/mL; in series [3] (Solubility (mg/mL) in saline), greater than 106 mg/mL.

The term solubility denotes how much of the substance goes into solution per volume. Read a low solubility as a poorly soluble substance.
